Data on 8 compounds can be found in PubChem BioAssay AID651786 (The Scripps Research Institute Molecular Screening Center, 2012).

Activity calls are given as the source filed them.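 How the source made its calls: active means IC50 at or below 10 µM; inactive means IC50 above 10 µM.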

This experiment concerns the target Nuclear receptor coactivator 1 (Homo sapiens) (UniProt Q15788). As to the kind of experiment: SRC1 (NCOA1) coactivator inhibitors, late-stage follow-up, selectivity assay for SRC3 inhibitor project, cell-based, HEK293, GAL4-SRC1 luciferase, powder samples (AID 651786). As to conditions: HEK293 GAL4-SRC1 luciferase reporter, luminescence. In general terms: A reporter such as luciferase makes a cellular process visible.

The term IC50 denotes the concentration that gives 50% inhibition.

Sequence of Nuclear receptor coactivator 1 (Homo sapiens) (Q15788 whole entry, looked up, the tested form may be a part): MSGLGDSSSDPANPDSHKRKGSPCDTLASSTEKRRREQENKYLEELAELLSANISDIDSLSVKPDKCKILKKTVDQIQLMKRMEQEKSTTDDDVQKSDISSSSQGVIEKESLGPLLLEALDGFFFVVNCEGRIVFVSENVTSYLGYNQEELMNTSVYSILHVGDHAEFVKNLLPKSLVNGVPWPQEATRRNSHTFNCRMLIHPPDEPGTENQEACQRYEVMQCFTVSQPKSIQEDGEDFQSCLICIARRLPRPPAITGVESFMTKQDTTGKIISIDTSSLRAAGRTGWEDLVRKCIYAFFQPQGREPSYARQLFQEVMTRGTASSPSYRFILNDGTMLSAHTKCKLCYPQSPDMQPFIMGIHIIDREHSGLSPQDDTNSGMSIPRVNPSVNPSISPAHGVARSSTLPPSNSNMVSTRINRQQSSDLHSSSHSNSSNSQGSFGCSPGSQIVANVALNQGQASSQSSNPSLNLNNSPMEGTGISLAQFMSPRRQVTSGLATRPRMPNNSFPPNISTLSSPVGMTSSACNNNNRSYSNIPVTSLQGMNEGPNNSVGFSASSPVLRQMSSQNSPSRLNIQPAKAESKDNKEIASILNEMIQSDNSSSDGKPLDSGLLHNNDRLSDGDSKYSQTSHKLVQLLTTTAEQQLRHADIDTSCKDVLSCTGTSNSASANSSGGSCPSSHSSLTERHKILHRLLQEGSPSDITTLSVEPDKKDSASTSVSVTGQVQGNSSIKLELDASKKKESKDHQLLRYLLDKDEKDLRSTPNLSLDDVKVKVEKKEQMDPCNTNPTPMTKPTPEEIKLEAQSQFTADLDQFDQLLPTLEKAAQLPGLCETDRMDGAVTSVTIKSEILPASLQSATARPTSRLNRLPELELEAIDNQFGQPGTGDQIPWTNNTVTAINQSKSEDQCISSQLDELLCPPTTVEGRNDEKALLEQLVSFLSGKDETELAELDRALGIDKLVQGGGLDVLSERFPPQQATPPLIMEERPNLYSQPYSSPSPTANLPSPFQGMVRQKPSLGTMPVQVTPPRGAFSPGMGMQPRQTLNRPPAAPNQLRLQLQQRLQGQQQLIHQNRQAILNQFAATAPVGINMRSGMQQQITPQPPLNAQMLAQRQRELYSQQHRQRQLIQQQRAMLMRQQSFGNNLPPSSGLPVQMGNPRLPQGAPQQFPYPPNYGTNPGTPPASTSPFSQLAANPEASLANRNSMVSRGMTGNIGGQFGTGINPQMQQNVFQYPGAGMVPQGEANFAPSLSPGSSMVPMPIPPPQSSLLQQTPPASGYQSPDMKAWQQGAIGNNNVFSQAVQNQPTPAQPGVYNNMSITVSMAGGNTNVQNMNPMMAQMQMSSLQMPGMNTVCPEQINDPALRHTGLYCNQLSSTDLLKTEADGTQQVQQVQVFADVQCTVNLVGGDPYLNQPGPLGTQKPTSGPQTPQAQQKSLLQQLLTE

With `CN1C(=O)C2(C(C#N)=C(N)N(c3cc(Cl)cc(Cl)c3)C3=C2C(=O)CCC3)c2ccccc21` (stereo not drawn), the IC50 is > 35.9 µM (inactive).
Turning to `O=C(COC(=O)c1ccc[nH]c1=O)Nc1ccc(N2CCCCC2)cc1`, the IC50 is > 35.9 µM (inactive).
In the case of `OCCN1CCN(C(=S)c2ccc(-c3ccccc3)cc2)CC1`, the half-maximal inhibitory concentration (IC50) is 3.01 µM.
With `Cc1ccc(OCC(=O)c2cc(C)n(-c3ccccc3)c2C)c([N+](=O)[O-])n1`, the IC50 result is “inactive”.
Take `CCCNC(=O)c1nnsc1S(=O)(=O)c1ccc(Cl)cc1`: the IC50 was 6.16 µM.
For `CN1C(=O)C2(C(C#N)=C(N)N(c3cc(Cl)cc(Cl)c3)C3=C2C(=O)CC(C)(C)C3)c2ccccc21` (stereo not drawn), the IC50 is > 35.9 µM (inactive).
Regarding `CC(C)(C)c1ccc(-c2noc(CCC(=O)Nc3cccnc3)n2)cc1`, the IC50 was > 35.9 µM (inactive).
Take `O=C(Nc1ccccc1Oc1ccccc1)c1cc([N+](=O)[O-])ccc1Cl`: the IC50 was 6.87 µM.
